Measurements: US11298312B2, “Composition comprising niacinamide and picolinamide” (Conopco, Inc., priority 2015, dated 2022)

tested on: psoriasin secretion; experiment: In-vitro generation of AMP (psoriasin) in differentiated NHEK keratinocytes, psoriasin ELISA of culture supernatant; type: cell-based, Human; conditions: NHEK cells, KGM + 2 mM calcium chloride, 72 h treatment; fold change over control (Example A); concentrations per Table 3
Protocol: In-Vitro Experiment with Combination of Niacinamide and Picolinamide as Per the Present Invention for Generation of AMP (Psoriasin): The experiment was done using the following protocol: Step 1: Human neonatal primary skin keratinocyte (NHEK) cells was obtained from Lonza®. The experiment was done with the above-mentioned cells with passage between 3 and 4. Then, the cells were seeded (35,000 cells/well) in 24 well plate with keratinocyte growth media (KGM) obtained from Invitrogen®. The plate was then incubated at 37±2° C. in a CO2 incubator for 48 hours. Step 2: After 48 hours of incubation, cell differentiation was induced by replacing media with fresh KGM supplemented with 2 mM calcium chloride solution. This was then followed by incubation at 37±2° C. in a CO2 incubator for 48 hours. Step 3: After that, the cells were treated with different concentration of Niacinamide and picolinamide and their combination at various concentration as per following Table 3 with keratinocyte growth media supplemented with 2 mM calcium chloride solution: Step 4: After the above treatment, cells were again incubated at 37±2° C. in a CO2 incubator for 72 hours Step 5: After 72 h of incubation, cell culture supernatant from each well was collected in a sterile tube. The samples were then stored at −80° C. until used for testing psoriasin secretion by standard ELISA technique using psoriasin ELISA kit obtained from Circulx® (No: CY—8073). In the current experiment, psoriasin was used as a marker for AMP. Step 6: The ELISA method was performed by using 100 μL of cell culture supernatant from each sample. The data is expressed in terms of fold change over control (without Niacinamide and/or picolinamide, Example A).

| SMILES | Fold change in psoriasin secretion |
| --- | --- |
| NC(=O)c1cccnc1 [Example C, Niacinamide] | 3.3 |
| NC(=O)c1ccccn1 [Example E, picolinamide] | 3.8 |
| NC(=O)c1ccccn1 [Example D, picolinamide] | 3.5 |
| NC(=O)c1cccnc1 [Example B, Niacinamide] | 1.8 |
